The first assay deals with T1, Neutrophil elastase (Homo sapiens, UniProt P08246).
T1 sequence (P08246 whole entry): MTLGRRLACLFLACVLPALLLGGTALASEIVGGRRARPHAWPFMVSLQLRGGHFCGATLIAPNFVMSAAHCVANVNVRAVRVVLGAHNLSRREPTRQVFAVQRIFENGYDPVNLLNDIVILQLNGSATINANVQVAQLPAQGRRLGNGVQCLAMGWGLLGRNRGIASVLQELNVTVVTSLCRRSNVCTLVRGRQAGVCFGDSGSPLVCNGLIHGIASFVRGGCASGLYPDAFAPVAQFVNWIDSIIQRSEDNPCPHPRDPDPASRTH
Test: not given
In kind it is tissue-based.
Conditions: not given
For the molecule `CCOC(=O)C(C)(C)Oc1ccc(Cl)cc1` [CLOFIBRATE], the IC50 result is on record as “Not Active”.

As to `CC(=O)OCC(=O)[C@@]1(O)CC[C@H]2[C@@H]3CCC4=CC(=O)CC[C@]4(C)[C@H]3C(=O)C[C@@]21C` [CORTISONE ACETATE], the IC50 result is reported as “Not Active”.

On to `O=c1ccc2ccccc2o1` [COUMARIN], for which the IC50 result was “Not Active”.

Consider `C[C@@H]1C[C@@H]([C@H](O)CC2CC(=O)NC(=O)C2)C(=O)[C@@H](C)C1` [CYCLOHEXIMIDE], for which the IC50 result is “Not Active”.

In another assay the target is Prostaglandin G/H synthase 1 (Homo sapiens, UniProt P23219). Description: biochemical. In kind it is tissue-based, Platelet. As to conditions: platelet.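 Also: inhibition of COX-1 enzyme activity, with arachidonic acid supplied as substrate; in other assays of this panel Not Active means under 50% inhibition at 10 µM.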
Sequence of Prostaglandin G/H synthase 1 (P23219 whole entry): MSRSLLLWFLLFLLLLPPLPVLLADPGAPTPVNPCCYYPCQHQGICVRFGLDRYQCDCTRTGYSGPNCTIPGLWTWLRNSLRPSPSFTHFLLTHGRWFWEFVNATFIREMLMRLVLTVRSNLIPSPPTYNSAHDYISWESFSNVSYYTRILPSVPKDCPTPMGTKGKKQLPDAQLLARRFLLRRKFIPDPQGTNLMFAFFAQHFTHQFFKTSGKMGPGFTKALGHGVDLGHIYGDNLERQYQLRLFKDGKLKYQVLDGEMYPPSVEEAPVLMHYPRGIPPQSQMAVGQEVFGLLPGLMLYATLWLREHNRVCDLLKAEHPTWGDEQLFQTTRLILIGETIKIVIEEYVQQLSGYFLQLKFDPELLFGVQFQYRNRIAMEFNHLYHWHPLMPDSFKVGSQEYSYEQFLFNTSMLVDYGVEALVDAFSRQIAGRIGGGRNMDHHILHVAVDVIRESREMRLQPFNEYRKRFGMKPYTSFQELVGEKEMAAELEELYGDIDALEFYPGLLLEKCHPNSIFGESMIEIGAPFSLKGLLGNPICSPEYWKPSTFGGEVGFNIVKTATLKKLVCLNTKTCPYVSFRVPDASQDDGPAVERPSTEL
As for `CCOC(=O)C(C)(C)Oc1ccc(Cl)cc1` [CLOFIBRATE], the IC50 entry is “Not Active”.

For `CC(=O)OCC(=O)[C@@]1(O)CC[C@H]2[C@@H]3CCC4=CC(=O)CC[C@]4(C)[C@H]3C(=O)C[C@@]21C` [CORTISONE ACETATE], the IC50 entry is “Not Active”.

Take `O=c1ccc2ccccc2o1` [COUMARIN]: the IC50 entry was “Not Active”.

`C[C@@H]1C[C@@H]([C@H](O)CC2CC(=O)NC(=O)C2)C(=O)[C@@H](C)C1` [CYCLOHEXIMIDE]: the IC50 result is given as “Not Active”.

In another assay the target is T2, C-X-C chemokine receptor type 1 (Homo sapiens, UniProt P25024). Also: in other assays of this panel Not Active means under 50% inhibition at 10 µM.
T2 sequence (P25024 whole entry): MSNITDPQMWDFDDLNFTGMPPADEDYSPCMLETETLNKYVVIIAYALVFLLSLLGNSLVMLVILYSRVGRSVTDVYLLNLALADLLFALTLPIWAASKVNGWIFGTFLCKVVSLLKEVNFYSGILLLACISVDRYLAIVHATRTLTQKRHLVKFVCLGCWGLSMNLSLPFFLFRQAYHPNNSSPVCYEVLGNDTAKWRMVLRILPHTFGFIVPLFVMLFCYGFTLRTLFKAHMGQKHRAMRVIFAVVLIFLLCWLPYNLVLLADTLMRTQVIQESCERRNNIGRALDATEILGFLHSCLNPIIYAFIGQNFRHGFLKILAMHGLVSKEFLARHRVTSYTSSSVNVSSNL
Test: not given
Conditions: not given
For `CCOC(=O)C(C)(C)Oc1ccc(Cl)cc1` [CLOFIBRATE], the IC50 entry is reported as “Not Active”.

For the molecule `CC(=O)OCC(=O)[C@@]1(O)CC[C@H]2[C@@H]3CCC4=CC(=O)CC[C@]4(C)[C@H]3C(=O)C[C@@]21C` [CORTISONE ACETATE], the IC50 result is given as “Not Active”.

Take `O=c1ccc2ccccc2o1` [COUMARIN]: the IC50 entry is reported as “Not Active”.

As for `C[C@@H]1C[C@@H]([C@H](O)CC2CC(=O)NC(=O)C2)C(=O)[C@@H](C)C1` [CYCLOHEXIMIDE], the IC50 entry is listed as “Not Active”.

The target of another assay is T3, Cathepsin G (Homo sapiens, UniProt P08311).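 Also: inhibition of Cathepsin G enzyme activity, tested on an AMC-conjugated peptide substrate; in other assays of this panel Not Active means under 50% inhibition at 10 µM.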
T3 sequence (P08311 whole entry): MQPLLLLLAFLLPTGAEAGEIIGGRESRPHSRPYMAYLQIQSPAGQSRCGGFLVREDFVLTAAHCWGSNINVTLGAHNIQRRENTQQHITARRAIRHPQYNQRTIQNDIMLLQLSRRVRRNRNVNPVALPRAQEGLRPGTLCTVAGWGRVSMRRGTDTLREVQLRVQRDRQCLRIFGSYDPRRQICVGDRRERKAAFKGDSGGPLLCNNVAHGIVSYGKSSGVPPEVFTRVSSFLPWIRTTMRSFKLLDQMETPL
Test: not given
Type of assay: tissue-based. As to conditions: neutrophil.
With `CCOC(=O)C(C)(C)Oc1ccc(Cl)cc1` [CLOFIBRATE], the IC50 entry is listed as “Not Active”.

With `CC(=O)OCC(=O)[C@@]1(O)CC[C@H]2[C@@H]3CCC4=CC(=O)CC[C@]4(C)[C@H]3C(=O)C[C@@]21C` [CORTISONE ACETATE], the IC50 result is listed as “Not Active”.

In the case of `O=c1ccc2ccccc2o1` [COUMARIN], the IC50 entry is listed as “Not Active”.

For the molecule `C[C@@H]1C[C@@H]([C@H](O)CC2CC(=O)NC(=O)C2)C(=O)[C@@H](C)C1` [CYCLOHEXIMIDE], the IC50 result was “Not Active”.

For another assay, the target named is Glycine receptor (Rattus norvegicus, UniProt P22771+P24524+P07727+P20781). Also: in other assays of this panel Not Active means under 50% inhibition at 10 µM.
Test: not given
Type of assay: cell membranes, Wistar, Spinal cord, Membrane.
Conditions: not given
For the molecule `CCOC(=O)C(C)(C)Oc1ccc(Cl)cc1` [CLOFIBRATE], the IC50 result is on record as “Not Active”.

Take `CC(=O)OCC(=O)[C@@]1(O)CC[C@H]2[C@@H]3CCC4=CC(=O)CC[C@]4(C)[C@H]3C(=O)C[C@@]21C` [CORTISONE ACETATE]: the IC50 result was “Not Active”.

With `O=c1ccc2ccccc2o1` [COUMARIN], the IC50 result is listed as “Not Active”.

With `C[C@@H]1C[C@@H]([C@H](O)CC2CC(=O)NC(=O)C2)C(=O)[C@@H](C)C1` [CYCLOHEXIMIDE], the IC50 entry is “Not Active”.

In another assay the target is T4, Thromboxane-A synthase (Homo sapiens, UniProt P24557).
T4 sequence (P24557 whole entry): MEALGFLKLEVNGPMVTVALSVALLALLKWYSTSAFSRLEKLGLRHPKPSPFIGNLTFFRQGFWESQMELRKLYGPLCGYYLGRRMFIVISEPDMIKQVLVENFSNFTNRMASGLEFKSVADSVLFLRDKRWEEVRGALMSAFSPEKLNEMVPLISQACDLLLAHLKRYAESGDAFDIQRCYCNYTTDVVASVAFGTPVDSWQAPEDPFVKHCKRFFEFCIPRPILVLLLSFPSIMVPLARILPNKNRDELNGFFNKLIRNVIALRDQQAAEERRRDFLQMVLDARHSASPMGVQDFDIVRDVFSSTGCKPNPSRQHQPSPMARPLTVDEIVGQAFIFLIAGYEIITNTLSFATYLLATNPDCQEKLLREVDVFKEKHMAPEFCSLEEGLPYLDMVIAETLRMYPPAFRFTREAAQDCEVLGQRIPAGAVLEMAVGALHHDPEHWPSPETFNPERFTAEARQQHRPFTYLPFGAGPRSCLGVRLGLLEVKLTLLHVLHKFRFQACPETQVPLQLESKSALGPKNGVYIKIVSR
Description: biochemical. In kind it is tissue-based, Platelet. As to conditions: platelet.
As to `CCOC(=O)C(C)(C)Oc1ccc(Cl)cc1` [CLOFIBRATE], the IC50 result is listed as “Not Active”.

As for `CC(=O)OCC(=O)[C@@]1(O)CC[C@H]2[C@@H]3CCC4=CC(=O)CC[C@]4(C)[C@H]3C(=O)C[C@@]21C` [CORTISONE ACETATE], the IC50 entry was “Not Active”.

As to `O=c1ccc2ccccc2o1` [COUMARIN], the IC50 result was “Not Active”.

Regarding `C[C@@H]1C[C@@H]([C@H](O)CC2CC(=O)NC(=O)C2)C(=O)[C@@H](C)C1` [CYCLOHEXIMIDE], the IC50 result is given as “Not Active”.

The next assay addresses T5, Interstitial collagenase (Homo sapiens, UniProt P03956).
T5 sequence (P03956 whole entry): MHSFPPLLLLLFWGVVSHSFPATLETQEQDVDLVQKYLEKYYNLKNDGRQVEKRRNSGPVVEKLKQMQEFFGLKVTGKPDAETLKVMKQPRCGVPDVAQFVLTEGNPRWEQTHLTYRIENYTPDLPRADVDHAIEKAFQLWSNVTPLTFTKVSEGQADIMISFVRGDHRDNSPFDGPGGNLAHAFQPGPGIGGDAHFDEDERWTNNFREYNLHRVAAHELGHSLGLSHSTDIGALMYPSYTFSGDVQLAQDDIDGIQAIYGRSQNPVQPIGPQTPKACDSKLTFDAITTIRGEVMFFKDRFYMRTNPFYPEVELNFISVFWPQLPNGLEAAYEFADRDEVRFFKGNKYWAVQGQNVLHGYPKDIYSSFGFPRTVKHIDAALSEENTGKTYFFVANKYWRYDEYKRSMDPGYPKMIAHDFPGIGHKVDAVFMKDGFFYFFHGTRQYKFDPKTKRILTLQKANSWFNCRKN
In words: biochemical. Type of assay: tissue-based, Rheumatoid synovial fibroblasts.
Conditions: not given
Turning to `CCOC(=O)C(C)(C)Oc1ccc(Cl)cc1` [CLOFIBRATE], the IC50 result was “Not Active”.

For `CC(=O)OCC(=O)[C@@]1(O)CC[C@H]2[C@@H]3CCC4=CC(=O)CC[C@]4(C)[C@H]3C(=O)C[C@@]21C` [CORTISONE ACETATE], the IC50 entry is given as “Not Active”.

In the case of `O=c1ccc2ccccc2o1` [COUMARIN], the IC50 result is “Not Active”.

Consider `C[C@@H]1C[C@@H]([C@H](O)CC2CC(=O)NC(=O)C2)C(=O)[C@@H](C)C1` [CYCLOHEXIMIDE], for which the IC50 entry is given as “Not Active”.

The next assay deals with T6, Alpha-1B adrenergic receptor (Rattus norvegicus, UniProt P15823).
T6 sequence (P15823 whole entry): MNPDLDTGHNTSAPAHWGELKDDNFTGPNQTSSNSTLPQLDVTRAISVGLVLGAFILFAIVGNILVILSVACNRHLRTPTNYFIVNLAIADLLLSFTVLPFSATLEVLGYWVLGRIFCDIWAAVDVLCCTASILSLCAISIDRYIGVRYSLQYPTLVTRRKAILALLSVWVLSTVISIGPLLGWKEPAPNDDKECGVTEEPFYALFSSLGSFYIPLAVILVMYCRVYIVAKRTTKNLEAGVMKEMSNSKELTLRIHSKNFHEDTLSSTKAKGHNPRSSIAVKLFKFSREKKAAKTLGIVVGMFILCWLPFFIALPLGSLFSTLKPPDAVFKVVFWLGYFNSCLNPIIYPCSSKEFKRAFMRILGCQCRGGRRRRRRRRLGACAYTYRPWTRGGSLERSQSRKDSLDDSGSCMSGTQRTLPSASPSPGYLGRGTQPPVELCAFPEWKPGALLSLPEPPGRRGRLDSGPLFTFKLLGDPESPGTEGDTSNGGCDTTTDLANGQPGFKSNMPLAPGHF
In words: DRUGMATRIX: Alpha-1B adrenergic receptor radioligand binding (ligand: prazosin). In kind it is cell membranes, Wistar, Liver, Membrane. As to conditions: Not Active = under 50% inhibition at 10 µM.
Consider `CCOC(=O)C(C)(C)Oc1ccc(Cl)cc1` [CLOFIBRATE], for which the IC50 result is “Not Active”.

Turning to `CC(=O)OCC(=O)[C@@]1(O)CC[C@H]2[C@@H]3CCC4=CC(=O)CC[C@]4(C)[C@H]3C(=O)C[C@@]21C` [CORTISONE ACETATE], the IC50 entry is “Not Active”.

As to `O=c1ccc2ccccc2o1` [COUMARIN], the IC50 result is “Not Active”.

On to `C[C@@H]1C[C@@H]([C@H](O)CC2CC(=O)NC(=O)C2)C(=O)[C@@H](C)C1` [CYCLOHEXIMIDE], for which the IC50 result is listed as “Not Active”.

For another assay, the target named is T7, Leukotriene C4 synthase (Cavia porcellus, UniProt A6XA80).
T7 sequence (A6XA80 whole entry): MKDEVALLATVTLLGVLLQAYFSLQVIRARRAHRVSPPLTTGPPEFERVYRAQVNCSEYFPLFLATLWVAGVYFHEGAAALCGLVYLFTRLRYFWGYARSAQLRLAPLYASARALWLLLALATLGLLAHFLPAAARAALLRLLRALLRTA
Test: not given
In kind it is tissue-based, Lung.
Conditions: not given
`CCOC(=O)C(C)(C)Oc1ccc(Cl)cc1` [CLOFIBRATE]: the IC50 result is given as “Not Active”.

`CC(=O)OCC(=O)[C@@]1(O)CC[C@H]2[C@@H]3CCC4=CC(=O)CC[C@]4(C)[C@H]3C(=O)C[C@@]21C` [CORTISONE ACETATE]: the IC50 result is recorded as “Not Active”.

Consider `O=c1ccc2ccccc2o1` [COUMARIN], for which the IC50 entry was “Not Active”.

Consider `C[C@@H]1C[C@@H]([C@H](O)CC2CC(=O)NC(=O)C2)C(=O)[C@@H](C)C1` [CYCLOHEXIMIDE], for which the IC50 entry is on record as “Not Active”.

Source of the values: ChEMBL document CHEMBL1909046, “DrugMatrix in vitro pharmacology data”.
